Test results: patent US20240309066A1, “MEANS AND METHODS FOR THE TREATMENT OF CALCIUM CRYSTAL DEPOSITION DISEASES” (UNIVERSITEIT MAASTRICHT, priority 2021, published 2024)
[ ]: non-standard residue; d: D form.

B1: bFetuin: bovine Fetuin (Sigma-Aldrich, #F2379), positive control for precipitation inhibition (protein, UniProt Q58D62 19-387, looked up)
Fetuin-B: TSPPQPAARPSSLLSLDCNSSYVLDIANDILQDINRDRKDGYVLSLNRVSDAREHRQEAGLGSLFYFTLDVLETGCHVLSRTSWKNCEVRIFHESVYGQCKAIFYINKEKRIFYLPAYNCTLRPVSQSAIIMTCPDCPSTSPYDLSNPRFMETATESLAKYNSESPSKQYSLVKITKTSSQWVFGPAYFVEYLIKESPCVKSEGSSCALESPGSVPVGICHGSLGEPQGNQGKIISVTCSFFNSQAPTPRGENATVNQRPANPSKTEELQQQNTAPTNSPTKAVPKGSVQYLPDWDKKREGSQEKDPVETFPVQLDLTTNPQGESLDVSFLFQEPMEEKVVVLPFPSKEQRSAECPGPAQKGYPFILPS

Tests used:
[1] = In vitro calcium phosphate precipitation assay; format: biochemical; conditions: for Precipitation inhibition: absorption measurement before SEM processing
Method: To evaluate the inhibitory capacity of the peptide according to SEQ ID NO: 1, we utilized a well-established in vitro calcium phosphate precipitation assay (17-19) as described in example 2.
Calcium precipitation assays were performed essentially as described before with minor adaptations (19). 2.4 mM ionic calcium (0.1M stock) was added to a 50 mM Tris/HCL buffer (pH 7.4) in 1.5 ml Eppendorf tubes. Peptide or bFetuin were added and incubated for 15 minutes at room temperature. Subsequently, 1.6 mM phosphate buffer (0.1M stock) was added and the mixture was incubated for 120 minutes at 37° C.
Data were normalized to the first positive control (normalized to 100%) in each experiment. As an internal reference for precipitation inhibition, we used 1 mg/ml, 0.5 mg/ml and 0.25 mg/ml bovine Fetuin (bFetuin, Sigma-Aldrich, #F2379) in each experiment. After 2 hours, samples were transferred to cuvettes (1.0 ml reactions) and absorbance was measured at A620 in a plate reader with a plate reader (Biorad). Each condition consisted of three biological replicates.

[2] = Total calcium, phosphate and protein measurements in pellets of in vitro precipitates; format: biochemical; conditions: 24 hours; control 14%
Method: To test this, particles were allowed to form for 2 or 24 hours in the presence or absence (control) of bFetuin or the peptide according to SEQ ID NO: 1. and subsequently harvested by centrifugation, washed and dissolved in acid, followed by total calcium, phosphate and protein measurements in the pellet and the supernatant.
Quantification of deposited calcium was carried out using a calcium determination kit (Randox, London, United Kingdom) according to the manufacturer's instruction, after hydrolysis of mineral deposits in 0.1M HCl. Calcium measurements were normalized to protein content using micro DC Protein Assay (Termo Scientifc, Bleiswijk, the Netherlands). To be able to measure protein content, an equal amount of 0.1M NaOH was used to neutralize the acid and 0.1% SDS (final concentration) was added to lyse cells in the cellular calcification assays.
Quantification of deposited phosphate was carried out using a phosphate colorimetric assay (Sigma, MK030) according to manufacturer's instruction after solubilisation of precipitates in 0.1M HCL.

[3] = system: Human articular chondrocytes (HACs); test: ATP-induced human articular chondrocyte calcification model; format: cell-based; conditions: 7 days, 1 mM ATP, 20 μM peptide, vs control with ATP
Method: (§1) FIG. 3: Inhibition of cellular calcification of human articular chondrocytes, vascular smooth muscle cells and bone marrow stromal cells by the peptide according to SEQ ID NO: 1. Representative phase-contrast microscopy images of in vivo cell assays are shown. • A) Human articular chondrocytes (HACs) were stimulated for 7 days with 1 mM ATP and with or without 20 μM of the peptide. Results were obtained from three chondrocyte donors with three biological replicates each. • B) Vascular smooth muscle cells (VSMC) were stimulated for 7 days with 4.5 mM ionic calcium in the presence or absence of 20 μM of peptide. Results were obtained from three VSMC donors with three biological replicates each. • C) BMSCs were differentiated for 21 days in osteogenic differentiation medium containing beta-glycerophosphate (BGP) in the pre- or absence of 2.1 μM of peptide. BMSC; one donor with four biological replicates was used. • Left panels: phase-contrast images were obtained at the final day of each experiment. […] Scale bars indicate 200 μm. • Right panels: quantification of total calcium precipitation per well measured with the Randox total calcium assay and normalized to total protein. […]
(§2) Quantification of deposited calcium was carried out using a calcium determination kit (Randox, London, United Kingdom) according to the manufacturer's instruction, after hydrolysis of mineral deposits in 0.1M HCl. […]

[4] = system: Vascular smooth muscle cells (VSMC); test: Calcium-induced vascular smooth muscle cell calcification model; format: cell-based, human; conditions: 7 days, 4.5 mM ionic calcium, 20 μM peptide
Method: as §1, with “peptide.” for “peptide. Results were obtained from three VSMC donors with three biological replicates each. • C) BMSCs were differentiated for 21 days in osteogenic differentiation medium containing beta-glycerophosphate (BGP) in the pre- or absence of 2.1 μM of peptide. BMSC; one donor with four biological replicates was used. • Left panels: phase-contrast images were obtained at the final day of each experiment.”
as §2
Human primary smooth muscle cells (VSMCs) were derived from tissue explants from patients undergoing surgery. […] Success of the isolation was determined by immunofluorescence staining for positive expression of alpha-smooth muscle actin (αSMA), smooth muscle protein 22-alpha (SM22α), phosphorylated myosin light chain 2 (pMLC) and absence of S100 C Calcium Binding Protein 4 (S100A4). […]

[5] = system: Bone marrow derived stromal cells (BMSCs); test: Beta-glycerophosphate-induced BMSC osteogenic differentiation model; format: cell-based, human; conditions: 21 days osteogenic differentiation medium with BGP, 2.1 μM peptide
Method: as §1, §2

rat osteoarthritis model = test: Rat osteoarthritis model (medial meniscal tear, collateral ligament transection); format: in vivo, Lewis rats
Method: FIG. 4: Intra-articular injection of the peptide ameliorates cartilage histopathology and improves animal mobility in a rat osteoarthritis model. Osteoarthritis was induced by introducing a surgical tear of the medial meniscus and transection of the collateral ligament (N=40). Bi-weekly intra-articular injections of 50 μl peptide with a concentration of 20 μM or 50 μl vehicle (0.9% NaCl) were performed (N=20 per group). Necropsy was performed at day 28, followed by histological analyses according to the OARSI scoring system.
• A) Representative toluidine blue stained tissue sections from the best, average and worst histological appearance. Cartilage tissue is stained in dark blue. • B) The OARSI score was obtained by multiplying grade and stage of cartilage damage per animal by two blinded observers. Statistical comparison was done with a two-tailed t-test. *=p. value<0.05. • C) Gait analyses score at day 20 of the experiment. Four measurements per animal were performed and each dot represents the average of one animal in the graph. Statistical significance between groups was determined with a Mann-Whitney U test. *=p. value<0.05.
We also evaluated the effect of bi-weekly intra-articular injection of the peptide in a rat osteoarthritis model (FIG. 4). Osteoarthritis was induced with a surgical tear of the medial meniscus and transection of the collateral ligament (N=40). […]

Molecule | Precipitation inhibition ([1]; 20 μM peptide, 2 hours) | efficiency of inhibition of in vitro calcium phosphate precipitation, comparison ([1]; compared with bFetuin) | concentration range down to which activity remained ([1]; dilution series in steps of 10, 2 hours) | concentration able to statistically significantly inhibit precipitation compared to control ([1]; dilution series, 2 hours) | concentration not able to statistically significantly inhibit precipitation ([1]; dilution series, 2 hours) | phosphate content in pellet [2] | inhibition of calcification [3] | inhibition of calcification [4] | inhibition of calcium precipitation [5] | reduction of histopathological OA score (OARSI) (rat osteoarthritis model; day 28 post-surgery, bi-weekly intra-articular 50 μl of 20 μM, vs vehicle) | animals having a normal gait (rat osteoarthritis model; gait analysis day 20, bi-weekly intra-articular 50 μl of 20 μM, vehicle 5/20) | Precipitation inhibition ([1]; 0.5 mg/ml bFetuin, 2 hours) | inhibition of precipitation ([1]; 1 mg/ml (20.6 μM), positive control) | concentration at which the inhibitory effect is lost ([1]; dilution series, 2 hours, molar equivalent of μg/ml)
peptide according to SEQ ID NO: 1: circular polypeptide of 30 D-amino acids LIYRQPNCDDPETEEAALVAIDYIAPHGPG, D-Leucine at position 1 linked to D-Glycine at position 30 (cyclo([dL][dI][dY][dR][dQ][dP][dN][dC][dD][dD][dP][dE][dT][dE][dE][dA][dA][dL][dV][dA][dI][dD][dY][dI][dA][dP][dH]G[dP]G); SMILES CC[C@@H](C)[C@H]1NC(=O)[C@@H](C)NC(=O)[C@@H](C(C)C)NC(=O)[C@@H](CC(C)C)NC(=O)[C@@H](C)NC(=O)[C@@H](C)NC(=O)[C@@H](CCC(=O)O)NC(=O)[C@@H](CCC(=O)O)NC(=O)[C@@H]([C@H](C)O)NC(=O)[C@@H](CCC(=O)O)NC(=O)[C@H]2CCCN2C(=O)[C@@H](CC(=O)O)NC(=O)[C@@H](CC(=O)O)NC(=O)[C@@H](CS)NC(=O)[C@@H](CC(N)=O)NC(=O)[C@H]2CCCN2C(=O)[C@@H](CCC(N)=O)NC(=O)[C@@H](CCCNC(=N)N)NC(=O)[C@@H](Cc2ccc(O)cc2)NC(=O)[C@@H]([C@H](C)CC)NC(=O)[C@@H](CC(C)C)NC(=O)CNC(=O)[C@H]2CCCN2C(=O)CNC(=O)[C@@H](Cc2c[nH]cn2)NC(=O)[C@H]2CCCN2C(=O)[C@@H](C)NC(=O)[C@@H]([C@H](C)CC)NC(=O)[C@@H](Cc2ccc(O)cc2)NC(=O)[C@@H](CC(=O)O)NC1=O; listed as Homo Sapiens) | ~50% | more efficiently than bFetuin | remained active until the attomolar concentration range | 20.6 aM | 2.6 aM | 9% | 22-33% | 58-61% | 81% | 38% | 16/20 | – | – | –
B1 | – | – | – | – | – | 9% | – | – | – | – | – | ~50% | completely inhibit precipitation | 20.6 to 200.6 nM
